Columns and labels:
[1] = target: influenza virus A/WSN/33 NA-H274Y (Influenza A virus, UniProt P03470, H259Y); format: biochemical, influenza A virus A/WSN/1933 (H1N1)
[2] = target: influenza virus A/WSN/33 NA-N294S (Influenza A virus, UniProt P03470, N279S); format: biochemical, influenza A virus A/WSN/1933 (H1N1)
[3] = target: influenza virus A/WSN/33 NA-Y155H (Influenza A virus, UniProt P03470, Y139H); format: biochemical, influenza A virus A/WSN/1933 (H1N1)
[4] = target: influenza virus A/WSN/33 NA-Q136L (Influenza A virus, UniProt P03470, Q120L); format: biochemical, influenza A virus A/WSN/1933 (H1N1)
[5] = system: influenza virus A/WSN/33 NA-I427Q
[6] = system: influenza virus A/WSN/33 NA-I427M
[7] = target: IAV WSN/33 NA-wt (whole virus) (Influenza A virus, UniProt P03470); experiment: biochemical; design: species or system influenza A virus A/WSN/1933 (H1N1); details: read-out: IC50, NA-wt
[8] = target: influenza virus A/WSN/33 NA-I427Q (Influenza A virus, UniProt P03470, I411Q); details: read-out: IC50, NA-I427Q
[9] = target: influenza virus A/WSN/33 NA-I427M (Influenza A virus, UniProt P03470, I411M); details: read-out: IC50, NA-I427M

In the case of O=S(=O)(O)c1ccc2c(/N=N/c3ccc(Sc4ccc(/N=N/c5c(O)ccc6cc(S(=O)(=O)O)ccc56)cc4)cc3)c(O)ccc2c1 [Compound 2], the “FC, NA-H274Y” value [1] is reported as 2, the “FC, NA-N294S” value [2] is reported as 1 and the “FC, NA-Y155H” value [3] is reported as 0.2. For the same compound, the “FC, NA-Q136L” value [4] was 2, the “FC, NA-I427Q” value [5] was 1 and the “FC, NA-I427M” value [6] was 1.
For CC(=O)N[C@H]1[C@H]([C@H](O)[C@H](O)CO)OC(C(=O)O)=C[C@@H]1O [DANA, 2,3-dehydro-2-deoxy-N-acetylneuraminic acid, reference compound], the IC50 [7] was 2440 ± 1080 nM, the “FC, NA-H274Y” value [1] was 1 and the IC50 [1] was 2510 ± 1380 nM. For the same compound, the “FC, NA-N294S” value [2] was 3, the IC50 [2] was 8.12 ± 2.07 µM and the “FC, NA-Y155H” value [3] was 3. For the same compound, the IC50 [3] was 8.36 ± 3.13 µM, the “FC, NA-Q136L” value [4] was 1 and the IC50 [4] was 2330 ± 1320 nM. For the same compound, the IC50 [8] was 12.8 ± 0.75 µM, the IC50 [9] was 2210 ± 620 nM and the “FC, NA-I427M” value [6] was 1.
Cc1ccccc1/N=N/c1ccc(/N=N/c2c(O)ccc3cc(S(=O)(=O)O)cc(S(=O)(=O)O)c23)c(C)c1 [Compound 5] was tested, and the “FC, NA-H274Y” value [1] was 3, the “FC, NA-N294S” value [2] was 3 and the “FC, NA-Y155H” value [3] was 1. The “FC, NA-Q136L” value [4] was 2, the “FC, NA-I427Q” value [5] was 2 and the “FC, NA-I427M” value [6] was 2.
For Cc1cc(N=Nc2ccc(N=Nc3c(O)c(S(=O)(=O)O)cc4cc(S(=O)(=O)O)ccc34)cc2C)ccc1N=Nc1ccc2cc(S(=O)(=O)O)cc(S(=O)(=O)O)c2c1 [Compound 1, 7-[2-[4-[2-[4-[2-(2-hydroxy-3,6-disulfo-1-naphthalenyl)diazenyl]-2-methylphenyl]diazenyl]-2-methylphenyl]diazenyl]-1,3-naphthalenedisulfonic acid], the “FC, NA-H274Y” value [1] was 3, the “FC, NA-N294S” value [2] was 1 and the “FC, NA-Y155H” value [3] was 1. The “FC, NA-Q136L” value [4] was 2, the “FC, NA-I427Q” value [5] was 1 and the “FC, NA-I427M” value [6] was 2.
